The values that follow come from US5858684A, “Method of screening calcium receptor-active molecules” (priority 1995, dated 1999).

pEC50, pIC50: −log10 of the molar value. Entries after “also recorded” stand apart in the source; their conditions may differ.

The target in one data set is T1, C-cell calcium receptor (Rattus norvegicus, UniProt P48442).
T1 sequence (P48442 20-1079): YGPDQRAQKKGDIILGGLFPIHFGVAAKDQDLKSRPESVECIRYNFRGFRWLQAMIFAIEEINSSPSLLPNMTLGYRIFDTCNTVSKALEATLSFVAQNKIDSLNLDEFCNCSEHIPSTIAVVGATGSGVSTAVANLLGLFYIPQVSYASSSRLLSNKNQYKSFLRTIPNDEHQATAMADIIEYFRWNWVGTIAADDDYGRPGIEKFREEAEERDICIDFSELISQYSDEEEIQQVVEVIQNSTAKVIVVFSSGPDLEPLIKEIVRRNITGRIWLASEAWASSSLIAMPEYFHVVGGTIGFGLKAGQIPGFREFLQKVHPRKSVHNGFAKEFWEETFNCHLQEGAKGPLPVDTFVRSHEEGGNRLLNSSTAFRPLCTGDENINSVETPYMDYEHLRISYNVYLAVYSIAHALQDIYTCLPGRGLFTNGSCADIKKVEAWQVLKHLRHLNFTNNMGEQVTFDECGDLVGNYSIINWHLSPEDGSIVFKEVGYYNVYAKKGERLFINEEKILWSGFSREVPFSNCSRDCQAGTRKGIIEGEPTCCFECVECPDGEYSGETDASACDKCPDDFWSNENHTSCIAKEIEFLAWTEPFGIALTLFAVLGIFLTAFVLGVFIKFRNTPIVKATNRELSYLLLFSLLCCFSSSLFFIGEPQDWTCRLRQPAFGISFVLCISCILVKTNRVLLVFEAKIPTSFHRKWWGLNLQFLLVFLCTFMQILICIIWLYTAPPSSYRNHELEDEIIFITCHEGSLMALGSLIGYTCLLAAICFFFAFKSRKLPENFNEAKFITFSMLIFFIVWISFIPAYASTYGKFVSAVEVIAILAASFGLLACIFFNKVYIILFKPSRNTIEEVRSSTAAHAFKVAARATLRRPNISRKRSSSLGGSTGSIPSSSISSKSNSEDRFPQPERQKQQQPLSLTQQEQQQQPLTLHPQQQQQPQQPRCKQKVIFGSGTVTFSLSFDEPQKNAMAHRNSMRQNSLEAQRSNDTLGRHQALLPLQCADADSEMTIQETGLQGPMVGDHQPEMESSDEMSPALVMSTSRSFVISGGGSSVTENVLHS
It is filed as cell-based. Further details: Neoplastic C-cells derived from a rat medullary thyroid carcinoma (rMTC 6-23); host or cells: rMTC 6-23. Particulars: rMTC 6-23 cells, fura-2; inactive = no increase in cytosolic Ca2+ at 1-5 mM.

Data set [1] deals with increases in [Ca2+]i elicited by extracellular Ca2+ in bovine parathyroid cells. Nature of the data set: block of extracellular Ca2+-induced [Ca2+]i increase / Ca2+ influx in bovine parathyroid cells. It is filed as cell-based. Particulars: for block of influx of extracellular Ca2+: 100 μM.
Method: The cells were then pelleted, resuspended in the same buffer, but lacking the ester, and incubated a further 15 minutes at 37° C. The cells were subsequently washed twice with PCB containing 0.5 mM CaCl2 and 0.5% BSA and maintained at room temperature (about 20° C.). Immediately before use, the cells were diluted five-fold with prewarmed 0.5 mM CaCl2 -PCB to obtain a final BSA concentration of 0.1%. The concentration of cells in the cuvette used for fluorescence recording was 1-2×10^6 /ml.
The fluorescence of indicator-loaded cells was measured at 37° C. in a spectrofluorimeter (Biomedical Instrumentation Group, University of Pennsylvania, Philadelphia, Pa.) equipped with a thermostated cuvette holder and magnetic stirrer using excitation and emission wavelengths of 340 and 510 nm, respectively. […] Leakage of dye is dependent on temperature and most occurs within the first 2 minutes after warming the cells in the cuvette. Dye leakage increases only very slowly thereafter. To correct the calibration for dye leakage, cells were placed in the cuvette and stirred at 37° C. for 2-3 minutes. The cell suspension was then removed, the cells pelleted, and the supernatant returned to a clean cuvette. […] This estimate was subtracted from the apparent Fmin.
Data set [2] concerns parathyroid cell calcium receptor. It is filed as cell-based. Particulars: for potentiation of mobilization of intracellular Ca2+ elicited by extracellular divalent cations / change in [Ca2+]i / increase in [Ca2+]i at intermediate extracellular Ca2+: 100 μM; for change in [Ca2+]i: 0.5 mM extracellular Ca2+; for increase in [Ca2+]i at intermediate extracellular Ca2+: 1-[…] extracellular Ca2+.

Data set [3] deals with osteoclast calcium receptor. Nature of the data set: increase in [Ca2+]i in indo-1-loaded rat osteoclasts. It is filed as cell-based.
The target in data set [4] is T2, bovine parathyroid cell calcium receptor (BoPCaR 1) (Bos taurus, UniProt P35384).
T2 construct: Xenopus oocytes were injected with BoPCaR 1, the 5.3 Kb cDNA encoding a bovine parathyroid cell calcium receptor; expressed in transfected cells; host or cells: Xenopus laevis oocytes injected with cRNA/cDNA of BoPCaR 1
T2 sequence (P35384 20-1085): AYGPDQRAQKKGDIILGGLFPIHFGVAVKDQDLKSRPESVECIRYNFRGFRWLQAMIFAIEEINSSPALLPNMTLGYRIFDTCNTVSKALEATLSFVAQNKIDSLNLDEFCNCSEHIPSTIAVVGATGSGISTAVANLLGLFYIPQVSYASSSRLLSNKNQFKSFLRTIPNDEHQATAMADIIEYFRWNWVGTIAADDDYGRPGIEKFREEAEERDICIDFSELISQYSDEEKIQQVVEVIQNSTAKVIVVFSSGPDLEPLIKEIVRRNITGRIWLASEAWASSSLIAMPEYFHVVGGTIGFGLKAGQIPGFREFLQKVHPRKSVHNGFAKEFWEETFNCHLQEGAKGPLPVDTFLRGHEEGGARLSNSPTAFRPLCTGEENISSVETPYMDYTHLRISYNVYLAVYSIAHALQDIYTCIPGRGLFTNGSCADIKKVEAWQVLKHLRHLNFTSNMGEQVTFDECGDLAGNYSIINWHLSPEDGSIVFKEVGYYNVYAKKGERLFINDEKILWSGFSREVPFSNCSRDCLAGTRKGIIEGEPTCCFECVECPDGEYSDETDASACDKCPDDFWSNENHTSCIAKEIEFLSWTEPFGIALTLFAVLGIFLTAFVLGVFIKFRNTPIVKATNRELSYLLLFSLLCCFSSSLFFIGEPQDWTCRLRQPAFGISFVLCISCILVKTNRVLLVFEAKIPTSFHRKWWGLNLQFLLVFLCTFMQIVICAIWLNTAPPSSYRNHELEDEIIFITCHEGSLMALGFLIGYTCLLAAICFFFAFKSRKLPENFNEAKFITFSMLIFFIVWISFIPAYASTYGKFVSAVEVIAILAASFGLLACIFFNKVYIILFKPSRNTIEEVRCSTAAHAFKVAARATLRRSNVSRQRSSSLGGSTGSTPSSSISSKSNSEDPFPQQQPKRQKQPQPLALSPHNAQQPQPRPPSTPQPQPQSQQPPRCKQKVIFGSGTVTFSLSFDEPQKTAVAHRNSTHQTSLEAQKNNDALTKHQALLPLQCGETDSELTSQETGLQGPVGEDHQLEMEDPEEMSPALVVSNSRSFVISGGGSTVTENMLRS
Nature of the data set: Cl- current in Xenopus oocytes expressing BoPCaR 1. The data set is classed as cell-based. The following applies: 1 mM extracellular Ca2+. Here is the method: Following incubation, an oocyte was placed into a 100-μl plastic chamber and superfused with MBS at a flow rate of 0.5 ml/min using a peristaltic pump. Test molecules or inorganic polycations were added by rapidly moving the tubing into different buffers. Recording and current-passing electrodes were constructed from thin-wall capillary tubing pulled to a resistance of 1-3 Mohms and filled with 3M KCl. […] Currents were recorded directly onto a strip chart recorder.
The techniques used to clone the parathyroid calcium receptor are briefly described in this example; a more complete description of the techniques is provided in preceding sections, which describe techniques which may be used to clone additional forms of the Ca^2+ -receptor from other cell types. Poly(A^+)-enriched mRNA was initially prepared from bovine parathyroid glands by extracting with guanidinium thiocyanate, centrifugation through CsCl and oligo(dT) cellulose chromatography. […] No such currents were elicited in control eggs injected with water.
These responses are mediated by the following series of biochemical events:
Xenopus oocytes were injected with BoPCaR 1, the 5.3 Kb cDNA encoding a bovine parathyroid cell calcium receptor as described in Example 25. After two to three days, Cl^- currents were examined in the oocytes using a two-electrode voltage clamp.
Xenopus oocytes were injected with BoPCaR 1 as described in Example 25. After two to three days, Cl^- currents were examined in the oocytes using two electrode voltage clamp.

The nature of another data set: net positive charge. The data set is classed as physicochemical.

From the text for C-cell calcium receptor: To assess the effects of molecular polycations on C-cells, a neoplastic cell line, derived from a rat medullary thyroid carcinoma (rMTC 6-23 cells) was used.

As for `NCCCNCCCCNCCCNCCCN(O)CCCNC(=O)Cc1c[nH]c2cccc(O)c12` [NPS 015], the “EC50 C-CELL (Table 6)” value at C-cell calcium receptor is “inactive”.
For `NCCCCCCCCCCCCNC(=O)Cc1ccc(O)cc1O` [NPS 021], the “effect on increase in [Ca2+]i elicited by extracellular Ca2+” value in data set [1] (200 μM, [Ca2+] 0.5 to 2 mM) is “inhibited the increase”. Moreover, the pIC50 in data set [1] (Bos taurus, fura-2 loaded bovine parathyroid cells, read-out: IC50 for blocking increase in [Ca2+]i elicited by extracellular Ca2+) was ~3.70. Further, the “increase in [Ca2+]i evoked by extracellular Ca2+” value in data set [1] (around 500 μM) is on record as “abolished”. Besides, the “change in [Ca2+]i by compound alone” value in data set [2] (0.5 mM Ca2+) is on record as “caused no change; also recorded: does not by itself cause any change”.
As to `NCCCNCCCCNCCCNCCCN(O)CCCNC(=O)Cc1c[nH]c2ccccc12` [NPS 017], the “EC50 OSTEOCLAST (Table 6)” value in data set [3] (rat osteoclasts, indo-1, inactive = no increase in cytosolic Ca2+ at 1-5 mM) is “inactive”. The “Cl- current” value in data set [4] is “oscillatory increases”.
Turning to `CC(Cc1ccccc1)NCCC(c1ccccc1)c1ccccc1` (stereo not shown) [Prenylamine], the “increase in [Ca2+]i (words)” value in data set [3] (rat osteoclasts) is “mobilization”.
As for `NCCCCCCCCCCCCN` [1,12-diaminododecane (DADD), 1,12-diaminododecane], in data set [1] (100 to 1000 μM), the “effect of pretreatment on increases in [Ca2+]i elicited by extracellular Ca2+” value is “depresses steady-state, but not transient increases”. In addition, in data set [1] (100 to 1000 μM, buffer containing 2 mM CaCl2), the “fall in [Ca2+]i” value is on record as “prompt fall”. Moreover, the “Net (+) Charge (Table 1)” value in the data set “net positive charge” is listed as “+2”.
Take `NCCCCNCCCN` [Spermidine, spermidine]: the pEC50 in data set [2] (screened as in Example 1, read-out: EC50 (Table 3)) was 2.70. The “increase in [Ca2+]i in osteoclasts, overall” value in data set [3] is “none of these caused any large increase”. Moreover, in “net positive charge”, the “Net (+) Charge (Table 1)” value is on record as “+3”.
For the molecule `COc1ccc(CCN(C)CCCC(C#N)(c2cc(OC)c(OC)c(OC)c2)C(C)C)cc1OC` [D-600], the “block of influx of extracellular Ca2+” value in data set [1] is “blocked the influx of extracellular”. Also, in data set [2], the “potentiation of mobilization of intracellular Ca2+ elicited by extracellular divalent cations” value was “potentiated the mobilization of intracellular”; the “change in [Ca2+]i” value is “evoked no change”; the “increase in [Ca2+]i at intermediate extracellular Ca2+” value is given as “small, but robust increase”.
In the case of `CCN(CC)CCCCCCCCOC(=O)c1cc(OC)c(OC)c(OC)c1` [TMB-8], the “block of influx of extracellular Ca2+” value in data set [1] was “blocked the influx of extracellular”. Moreover, in data set [2], the “potentiation of mobilization of intracellular Ca2+ elicited by extracellular divalent cations” value was “potentiated the mobilization of intracellular; also recorded: potentiated transient increases”; the “change in [Ca2+]i” value was “evoked no change”; the “increase in [Ca2+]i at intermediate extracellular Ca2+” value is reported as “small, but robust increase”.

As usually defined, the pIC50 is the negative decadic logarithm of the IC50, by convention in mol/L. The pEC50 is −log10 of the EC50, conventionally taken in molar units.
